Measured values from PubChem BioAssay AID691 (PCMD, 2007).
Converted amounts (≈) assume the structure as drawn. Records with an inconclusive call do not appear. The source made the active and inactive calls. The rule behind the calls is not given here.

System: Zebrafish larvae lipid metabolism, fluorescent lipid gallbladder/intestine
Test: larval zebrafish lipid processing modulation – whole organism, confirmation, fluorescent lipid, gallbladder/intestine, dose response (AID 691)

CNc1oc(-c2ccccc2Cl)nc1C#N
MIC: > 100 µM (inactive)

COc1cccc(-c2nnc3sc(-c4ccco4)nn23)c1
MIC: > 100 µM (inactive)

Cc1c(N=Cc2c(O)n(C3CCCCC3)c(=O)[nH]c2=O)c(=O)n(-c2ccccc2)n1C
MIC: > 100 µM (inactive)

Cc1csc(NC(=O)Nc2cccc(Cl)c2)n1
MIC: > 100 µM (inactive)

CC(C)N=c1cc2n(-c3ccc(Cl)cc3)c3ccccc3nc-2cc1Nc1ccc(Cl)cc1
MIC: 6.25 µM (≈ 2.96 µg/mL)

Cc1ccc2[nH]c3c(c2c1)CN(C(=O)CN1CCCc2ccccc21)CC3
MIC: > 100 µM (inactive)

CCN1CC2=C(OC(N)=C(C#N)C2c2ccccc2)/C(=C\c2ccccc2)C1 (stereo not given)
MIC: > 100 µM (inactive)

CCCC1CC(=O)OC1(C)C(=O)CSc1n[nH]c(-c2ccccc2)n1 (stereo not given)
MIC: > 100 µM (inactive)

c1ccc(-c2nnc3sc(Cc4cccs4)nn23)cc1
MIC: 18.8 µM (≈ 5.59 µg/mL)

CCOC(=O)CSc1nc(N)c(C(=O)Nc2ccc(N(C)C)cc2)s1
MIC: 25 µM (≈ 9.51 µg/mL)

Cc1ccc2nc(C3CCN(CC(=O)N4CCCCCC4)CC3)[nH]c2c1
MIC: > 100 µM (inactive)

CNc1ccccc1-c1nc2ccccc2n(C)c1=O
MIC: 15.6 µM (≈ 4.15 µg/mL)

COC(=O)c1sccc1NC(=O)c1ccco1
MIC: > 100 µM (inactive)

O=C1c2ccccc2-c2onc3ccc(NCc4ccco4)c1c23
MIC: 3.91 µM (≈ 1.24 µg/mL)

CC1(C)Cc2c(C#N)c(NCc3ccco3)nc(-c3ccco3)c2CO1
MIC: > 100 µM (inactive)

N#Cc1c(NCCN)nc(NCc2ccccc2)c2c1CCN(Cc1ccccc1)C2
MIC: > 100 µM (inactive)

c1coc(-c2nnc3sc(-c4cccs4)nn23)c1
MIC: 9.37 µM (≈ 2.57 µg/mL)

COC(=O)c1ccc(Cn2nnc3c(sc4nc(N5CCOCC5)c5c(c43)CCCC5)c2=O)o1
MIC: > 100 µM (inactive)

N#CCSc1nc2c(c(=O)n1Cc1ccco1)C1(CCCC1)Cc1ccccc1-2
MIC: 25 µM (≈ 10.1 µg/mL)

CCCCOc1ccccc1C(=O)NCCCC(=O)O
MIC: > 100 µM (inactive)

C=CCn1c(N)c(C(=O)Nc2ccccc2)c2nc3ccccc3nc21
MIC: > 100 µM (inactive)

CCN(CC)C(=O)c1sc2nc(-c3cccs3)cc(-c3cccs3)c2c1N
MIC: 12.5 µM (≈ 5.17 µg/mL)

COC(=O)C1=C(N)Oc2cc(C)oc(=O)c2C1c1ccncc1 (stereo not given)
MIC: > 100 µM (inactive)

N#CC1=C(SCC(=O)c2ccc(Cl)cc2)NC2=C(C(=O)CCC2)C1c1ccco1 (stereo not given)
MIC: > 100 µM (inactive)

N#Cc1ccc(CSc2nnc(-c3ccccn3)n2-c2ccccc2)cc1
MIC: > 100 µM (inactive)

Cc1cccc2c1NC(C)CC2C (stereo not given)
MIC: > 100 µM (inactive)

Cc1c(N=Cc2c(O)n(CCc3ccc(F)cc3)c(=O)[nH]c2=O)c(=O)n(-c2ccccc2)n1C
MIC: > 100 µM (inactive)

CCOC(=O)CCc1c(C)c(C#N)c2[nH]c3ccccc3n2c1=O
MIC: > 100 µM (inactive)

COc1ccc(C)cc1-n1nnnc1SC/C(O)=C(\C#N)c1nc2ccccc2[nH]1
MIC: > 100 µM (inactive)

CS(=O)(=O)Nc1ccc([N+](=O)[O-])cc1Oc1ccccc1
MIC: > 100 µM (inactive)

Cc1ccc(CNC(=O)c2cc3c(=O)n4ccccc4nc3n(Cc3ccco3)c2=N)cc1
MIC: 62.5 µM (≈ 27.5 µg/mL)

COC(=O)c1cc(Br)c(=O)n(CCc2ccc(F)cc2)c1
MIC: > 100 µM (inactive)

COc1ccc2c(c1)c(C(=O)CN1CCOCC1)c(C)n2C
MIC: > 100 µM (inactive)

CCN(CC)c1ccc(C2Nc3cccc4cccc(c34)N2)c(O)c1
MIC: > 100 µM (inactive)

CC1Oc2ccccc2N(CC(=O)NCc2cccs2)C1=O (stereo not given)
MIC: > 100 µM (inactive)

CN(C)[C@@H]1C(=O)C(C(N)=O)=C(O)[C@@]2(O)C(=O)C3=C(O)c4c(O)ccc(Cl)c4[C@@H](O)[C@H]3C[C@@H]12
MIC: > 100 µM (inactive)

COc1ccc(OC)c(Nc2nc(-c3cccs3)cs2)c1
MIC: 56.2 µM (≈ 17.9 µg/mL)

CCOC(=O)CSc1nnc2n(Cc3ccccc3)c(=O)c3c4c(sc3n12)CCC4
MIC: > 100 µM (inactive)

CCOC(=O)C1CCCN(c2nc3ccccc3nc2C(C#N)C(=O)OCCOC)C1 (stereo not given)
MIC: > 100 µM (inactive)

OCCN1CCN(CCCN2c3ccccc3Sc3ccc(C(F)(F)F)cc32)CC1
MIC: > 100 µM (inactive)

c1ccc(CN2CCN(c3ncnc4c3[nH]c3ccccc34)CC2)cc1
MIC: 31.3 µM (≈ 10.7 µg/mL)

COc1ccc(C2CC(C(F)(F)F)n3ncc(C(=O)Nc4cccc(O)c4)c3N2)cc1OC (stereo not given)
MIC: > 100 µM (inactive)

COCCCN1C(=O)C(O)=C(C(C)=O)C1c1ccccn1 (stereo not given)
MIC: > 100 µM (inactive)

CCNC(=O)c1cc2c(=O)n3cccc(C)c3nc2n(CCc2ccccc2)c1=N
MIC: > 100 µM (inactive)

Cc1nnc(NC(=O)C2CCCO2)s1 (stereo not given)
MIC: > 100 µM (inactive)

COc1ccccc1-c1nnc2sc(C3CCCCC3)nn12
MIC: > 100 µM (inactive)

CC(=O)Nc1nnc(S(N)(=O)=O)s1
MIC: > 100 µM (inactive)

Cn1c(C(=O)OC(C(=O)NC2CCCC2)c2cccnc2)cc2sccc21 (stereo not given)
MIC: > 100 µM (inactive)

Clc1ccc(OCc2nnc(SCCN3CCCCC3)n2Cc2ccco2)cc1
MIC: 75 µM (≈ 32.5 µg/mL)

CC1(c2cnc(Nc3ccccc3)s2)CCC(=O)O1 (stereo not given)
MIC: > 100 µM (inactive)
